Assay results: publication PMC4729137, “Functional analysis of androgen receptor mutations that confer anti-androgen resistance identified in circulating cell-free DNA from prostate cancer patients” (Genome Biology, 2016)
Where two headings read alike, the source gives them in different places.

Assays:
[1] = serum of prostate cancer patients, cited from earlier work
[2] = molecular target: T1, BF3 pocket of AR-LBD (Homo sapiens, UniProt P10275); assay: Lanthascreen TR-FRET displacement of FITC-BAG1L peptide; format: binding; conditions: compounds 0.41 to 100 μM
T1 construct: the (His)6-tagged AR-LBD was prepared at 4X final concentration in the buffer
T1 sequence (P10275 669-900 limits assumed): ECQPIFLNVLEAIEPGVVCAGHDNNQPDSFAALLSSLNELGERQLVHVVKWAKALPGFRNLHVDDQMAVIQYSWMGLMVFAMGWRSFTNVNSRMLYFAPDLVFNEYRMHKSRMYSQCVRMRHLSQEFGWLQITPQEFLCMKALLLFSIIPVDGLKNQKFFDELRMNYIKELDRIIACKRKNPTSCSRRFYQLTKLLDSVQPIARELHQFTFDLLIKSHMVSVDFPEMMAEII
Method: Compounds were tested in the range of 0.41 to 100 μM in a final concentration of 1.5 % DMSO. The protein AR-LBD, the FITC-BAG1L peptide, and the LanthaScreen® Elite Terbium-labeled anti-His-tag antibody (Life Technologies, PV5863) were used at final concentrations of 100 nM, 500 nM, and 5 nM, respectively. […] Mix B contained 4X FITC-BAG1L peptide in 2 % DMSO. A three-fold serial dilution of the compounds was prepared at 100X final concentration in DMSO. […] In a black flat bottom 384-well plate 5 μL of Mix A, 5 μL of Mix B, and 10 μL of Mix C were added.

[3] = test system: 24 AR mutants; assay: AR inhibition luciferase assay, panel of all 24 AR mutants; format: cell-based, human; conditions: all tested AR mutants; Additional file 4: Table S2
Excerpt: Full-length human AR (WT-AR) was encoded on a pcDNA3.1 expression plasmid (Life technologies). The LBD point mutations (single and multiple) were generated using the QuikChange II Site-Directed Mutagenesis Kit (Agilent Technologies) as per manufacturer’s instructions using WT-AR as the template. The mutagenic oligonucleotide primers were designed individually with the desired mutation in the middle of the primer with approximately 10 to 15 bases of correct sequence on both sides.
PC3 cells were seeded and transfected as described above. […] A non-stimulated/no R1881 control was used. After 24 h, cells were lysed and AR-dependent luciferase activity was quantified. Each concentration was assayed in quadruplicate n = 4, with a biological replicate of n = 3. Results were averaged and normalized by expressing them as a percentage of WT AR activity.

CC(O)(CS(=O)(=O)c1ccc(F)cc1)C(=O)Nc1ccc(C#N)c(C(F)(F)F)c1 (stereo not shown) [Bicalutamide, bicalutamide]
Steady state concentration in serum [1]: 8.9 µg/mL
Steady state concentration in serum ([1]; converted from μg/mL): approximately 20 μM

Brc1cn(-c2csc(N3CCOCC3)n2)c(Br)n1 [VPC-14449]
Displacement of FITC labeled BAG1L peptide (residues 1-20) from the BF3 pocket of AR [2]: not able to displace

C[C@]12CC[C@H](O)CC1=CC[C@@H]1[C@@H]2CC[C@]2(C)C(c3cccnc3)=CC[C@@H]12 [abiraterone]
Activation of AR mutants (in words) [3]: none of the tested mutants were activated
